This note sets out measurements from patent publication US20260000600A1, “PHARMACEUTICAL COMPOSITION FOR PREVENTING OR TREATING INFLAMMATORY DISEASES COMPRISING PEGYLATED BILIRUBIN” (BILIX CO., LTD., priority 2022, published 2026).

Experiment [1] relates to DNFB-induced contact dermatitis mouse model. Briefly: DNFB-induced contact dermatitis mouse model. In kind it is in vivo, C57BL/6 NC/Nga male mice. Particulars: 0.1% Dexamethasone, 62.5 mg/animal, topical daily; Vehicle 0.94±0.01. The text has this: A DNFB-induced contact dermatitis mouse model was created using 6 to 10-week-old C57BL/6 NC/Nga male mice and Mouse 2, 4 Dinitrofluorobenzene (DNFB). On Days 0 and 1, 0.5% DNFB solution (acetone:olive oil=4:1) was applied to the back skin to sensitize them, and then on Day 7, 0.3% DNFB solution was applied to the ear skin to induce contact dermatitis. With respect to a normal group in which the DNFB solution was not applied (Normal group), as negative control groups, a group in which no additional substances were applied in the process of inducing contact dermatitis (No Treatment group) and a group in which excipients were applied to the skin (Vehicle group), and as a positive control group, a group in which the previously-approved drug Maxidex was applied (Dexamethasone group, 0.1% Dexamethasone, 62.5 mg/animal), the test substance Brixelle (30 mg/kg) was applied to the skin every day from Day 0, thus to evaluate its effectiveness. Clinical symptoms were evaluated during the process of inducing contact dermatitis, and skin tissues were secured after the survival test was completed for further analysis.
Ear thickness was measured to evaluate edema, a clinical symptom of contact dermatitis. […] The results of the graph were expressed as mean±SEM. […]

Experiment [2] has as its system HDM-induced atopic dermatitis mouse model. In words: HDM-induced atopic dermatitis mouse model (1), dose dependence. In kind it is in vivo, NC/Nga female mice. As to conditions: 0.1% Dexamethasone, 62.5 mg/animal. How it is done:
(§1) An HDM-induced atopic dermatitis mouse model was created by applying HDM antigen ointment to the back and ear skin of 6 to 10-week-old NC/Nga female mice a total of 7 times on Days 0, 7, 10, 14, 17, 21 and 24. […] Clinical symptoms were evaluated during the process of inducing atopic dermatitis, and skin tissues were secured after the survival test was completed for further analysis.
(§2) To quantify the clinical symptoms of atopic dermatitis, for four (4) clinical index items including 1) erythema/hemorrhage, 2) scarring/dryness, 3) edema and 4) excoriation/maceration (erosion), a clinical score was measured on a Likert scale out of 3. H&E staining was performed to observe histological changes in the skin for atopic dermatitis, while dihydroethidium (DHE) staining was performed to measure ROS in skin tissues. Further, in order to identify the mast cells and eosinophils infiltrated in the skin tissues, Toluidine blue staining and Congo red staining were performed, respectively. The results of the graph were expressed as mean±SEM. The statistical analysis was performed using the GraphPad program to confirm statistical significance with the Vehicle group through one-way ANOVA, followed by Dunnett's multiple comparison method (*p<0.05, **p<0.01, ***p<0.001, ****p<0.0001).

Experiment [3] has the same test system. Briefly: HDM-induced atopic dermatitis mouse model (2), comparison with approved drugs. In kind it is in vivo, NC/Nga female mice. Particulars: 0.1% Dexamethasone, 62.5 mg/animal. How it is done: as §1
as §2, with “respectively. To measure IL-4 and IL-13, which are inflammatory mediators known to be highly related to atopic dermatitis, ELISA was performed on the skin tissues.” for “respectively.”

The test system of experiment [4] is IMQ-induced psoriasis mouse model. In words: IMQ-induced psoriasis mouse model. In kind it is in vivo, C57BL/6 male mouse. As to conditions: 0.05% Clobetasol propionate, 62.5 mg/animal, topical daily; Vehicle 10.50±0.47. An excerpt:
An IMQ-induced psoriasis mouse model was created by applying Aldara™ (imiquimod, IMQ) cream to the back skin of an 8-week-old C57BL/6 male mouse a total of 7 times from Day 0 to Day 6. With respect to a normal group in which IMQ cream was not applied (Normal group), as negative control groups, a group in which no additional substances were applied in the process of inducing psoriasis (No Treatment group) and a group in which excipients were applied to the skin (Vehicle group), and as a positive control group, a group in which the previously-approved drug Betabate was applied (Clobetasol propionate group, 0.05% Clobetasol propionate, 62.5 mg/animal), the test substance Brixelle (30 mg/kg) was applied to the skin every day from Day 0, thus to evaluate its effectiveness. Clinical symptoms were evaluated during the process of inducing psoriasis, and skin tissues were secured after the survival test was completed for further analysis.
To quantify the clinical symptoms of psoriasis, for three (3) clinical index items including 1) erythema (redness), 2) scaling and 3) skin thickness, a clinical score was measured on a scale out of 4 (modified psoriasis area and severity index, PASI). […] The results of the graph were expressed as mean±SEM. […]

On to `C[C@@H]1C[C@H]2[C@@H]3CCC4=CC(=O)C=C[C@]4(C)[C@@]3(F)[C@@H](O)C[C@]2(C)[C@@]1(O)C(=O)CO` [Dexamethasone], for which the “thickness of the ear skin” value in experiment [1] turned out to be 0.67±0.02. Besides, the “clinical score (atopic dermatitis)” value was determined as 4.90±0.76 in experiment [2] (topical daily from Day 7, Vehicle 9.44±0.77, mean±SEM) and 3.75±0.99 in experiment [3] (topical daily from Day 7, Vehicle 9.58±0.64). Moreover, the results for the “eosinophil infiltration (Congo red staining)” value in experiment [2] (Vehicle 35.50±1.37) and in experiment [3] (Vehicle 40.06±5.95) were 18.88±1.64 and 10.25±2.56, respectively. For the same compound, the “mast cell infiltration (Toluidine blue staining)” value in experiment [2] (Vehicle 52.69±2.19) is 27.38±3.19; in experiment [3] (Vehicle 56.81±1.99) it was 20.69±5.25.

In the case of `CCC(=O)O[C@]1(C(=O)CCl)[C@@H](C)C[C@H]2[C@@H]3CCC4=CC(=O)C=C[C@]4(C)[C@@]3(F)[C@@H](O)C[C@@]21C` [Clobetasol propionate], the “clinical score (modified PASI)” value in experiment [4] stood at 7.25±0.21.
